The source of these data is patent US11572350B1, “Benzothia(di)azepine compounds and their use as bile acid modulators” (Albireo AB, priority 2020, dated 2023).

As usually defined, the pIC50 is the IC50 on a negative log10 scale, so that one unit is a factor of ten.

pIC50: −log10 of the molar value.

One test has as its target T1, human LBAT (Homo sapiens, UniProt Q14973).
T1 construct: expressed in transfected cells; kept under Geneticin selection
T1 sequence (Q14973 1-349): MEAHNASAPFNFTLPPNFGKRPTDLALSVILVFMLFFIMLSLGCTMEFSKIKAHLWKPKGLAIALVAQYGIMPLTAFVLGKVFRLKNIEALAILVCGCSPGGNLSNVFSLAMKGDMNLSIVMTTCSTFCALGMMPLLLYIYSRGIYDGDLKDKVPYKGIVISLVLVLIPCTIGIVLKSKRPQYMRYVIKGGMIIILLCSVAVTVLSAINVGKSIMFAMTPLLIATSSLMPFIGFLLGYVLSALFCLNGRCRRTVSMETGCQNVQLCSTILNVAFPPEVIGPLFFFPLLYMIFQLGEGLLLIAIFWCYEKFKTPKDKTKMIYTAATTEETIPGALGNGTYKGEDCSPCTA
Kind of test: LBAT (h/m) assay: 3H-taurocholic acid uptake in human LBAT-overexpressing cells. As to conditions: 0.3 μM 3H-taurocholic acid and 7.5 μM cold taurocholic acid, 20 minutes, read-out: hLBAT IC50. The test is classed as cell-based. As to the method:
LBAT (h/m) Assay Protocol
20,000 cells (Human or Mouse LBAT-overexpressing cells) were seeded in 96-wells plate (Corning CLS3809) in 100 μL MEM-alpha medium (Gibco 12571-063) supplemented with 10% FBS (Gibco 10438026) containing Geneticin (Gibco 10131-027) (1 mg/mL) and incubated at 37° C. in 5% CO2 for 24 hours. After incubation, media was decanted from the wells and cells were washed two times with 300 μL of basal MEM-alpha medium (FBS-free). After decanting basal MEM-alpha medium each time, plates were tapped against paper towel to ensure maximum removal of residual media. For human LBAT, incubation mix was prepared by adding test inhibitor dilutions (3-fold serial dilution in DMSO (Sigma D2650), 10 points) in MEM-alpha (without FBS) containing 0.3 μM 3H-taurocholic acid (ARC ART-1368) and 7.5 μM cold taurocholic acid (Sigma T4009) (maintaining 0.2% final DMSO concentration). For mouse LBAT, incubation mix was prepared by adding test inhibitor dilutions (3-fold serial dilution in DMSO, 10 points) in MEM-alpha (without FBS) containing 0.3 μM 3H-taurocholic acid and 25 μM cold taurocholic acid maintaining 0.2% final DMSO concentration). 50 μL of incubation mix containing test inhibitors was then added to the wells (in duplicate) and the plates were incubated for 20 minutes in a CO2 incubator at 37° C. After incubation, the reaction was stopped by keeping the plates on ice water mix for 2-3 minutes and then the incubation mix was aspirated completely from the wells. The wells were washed two times with 250 μL of chilled unlabelled 1 mM taurocholic acid dissolved in HEPES (Gibco 15630080)-buffered (10 mM) HBSS (Gibco 14175079) (pH 7.4). The plates were tapped against a paper towel after every wash to ensure maximum removal of blocking buffer.
100 μL of MicroScint-20 (PerkinElmer 6013621) was added to the wells and kept overnight at room temperature before reading the plates in TopCount NXT™ Microplate Scintillation and Luminescence Counter from PerkinElmer under 3H Test protocol (set at 120 seconds reading time per well, with normal plate orientation).
(§1) Preparation of Test Compound Dilutions
(§2) All test compounds were provided in powder form at room temperature. 10 mM DMSO stocks of the test compounds were prepared, aliquoted and stored at −20° C. From the 10 mM DMSO stock of the compounds, a 3-fold serial dilution in DMSO was prepared to get a total of 10 dilutions of the test compounds. 0.5 μL of this dilution in DMSO was added to 250 μL of FBS-free basal media containing 3H-taurocholic acid and cold taurocholic acid to prepare the incubation mixture.

For a further test, the target named is T2, human IBAT (Homo sapiens, UniProt Q12908).
T2 construct: expressed in transfected cells; kept under Puromycin selection
T2 sequence (Q12908 1-348): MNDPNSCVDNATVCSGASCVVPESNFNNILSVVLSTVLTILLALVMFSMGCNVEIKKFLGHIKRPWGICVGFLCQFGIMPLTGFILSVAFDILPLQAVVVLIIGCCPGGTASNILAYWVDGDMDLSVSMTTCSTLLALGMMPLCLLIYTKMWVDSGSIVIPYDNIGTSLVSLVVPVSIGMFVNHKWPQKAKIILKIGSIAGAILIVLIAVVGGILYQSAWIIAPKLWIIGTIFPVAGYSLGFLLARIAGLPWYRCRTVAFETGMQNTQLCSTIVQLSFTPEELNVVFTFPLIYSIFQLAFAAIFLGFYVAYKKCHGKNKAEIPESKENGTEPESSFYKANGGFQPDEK
Kind of test: IBAT (h/m) assay: 3H-taurocholic acid uptake in human IBAT-overexpressing cells. In kind it is cell-based. Particulars: 0.25 μM 3H-taurocholic acid and 5 μM cold taurocholic acid, 20 minutes, highest test concentration 10 μM, read-out: hIBAT IC50. As to the method:
IBAT (h/m) Assay Protocol
10,000 cells (Human or Mouse IBAT-overexpressing cells) were seeded in 96-wells plate (Corning CLS3809) in 200 μL MEM-alpha medium (Gibco 12571-063) supplemented with 10% FBS (Gibco 10438026) containing Puromycin (Gibco A1113803) (10 μg/mL) and incubated at 37° C. in 5% CO2 for 48 hours. After incubation, media was decanted from the wells and cells were washed two times with 300 μL of basal MEM-alpha medium (FBS-free). After decanting basal MEM-alpha medium each time, plates were tapped against paper towel to ensure maximum removal of residual media. Test inhibitor dilutions (highest test concentration being 10 μM, 3-fold serial dilution, 10 points) prepared in DMSO (Sigma D2650) were added in incubation mix (maintaining 0.2% final DMSO concentration) containing 0.25 μM 3H-taurocholic acid (ARC ART-1368) and 5 μM of cold taurocholic acid (Sigma T4009). 50 μL of incubation mix containing test inhibitors was then added to the wells (in duplicate) and the plates were incubated for 20 minutes in a CO2 incubator at 37° C. After incubation, the reaction was stopped by keeping the plates on ice water mix for 2-3 minutes and then the incubation mix was aspirated completely from the wells. The wells were washed two times with 250 μL of chilled unlabelled 1 mM taurocholic acid dissolved in HEPES (Gibco 15630080)-buffered (10 mM) HBSS (Gibco 14175079) (pH 7.4). The plates were tapped against a paper towel after every wash to ensure maximum removal of blocking buffer.
100 μL of MicroScint-20 (PerkinElmer 6013621) was added to the wells and kept overnight at room temperature before reading the plates in TopCount NXT™ Microplate Scintillation and Luminescence Counter from PerkinElmer under 3H Test protocol (set at 120 seconds reading time per well).
as §1, §2

On to `CCCCC1CN(c2ccccc2)c2cc(SCC)c(O/C=C(\F)C(=O)O)cc2S(=O)(=O)N1C` (single isomer, unassigned) [Example 26, (Z)-3-((3-butyl-7-(ethylthio)-2-methyl-1,1-dioxido-5-phenyl-2,3,4,5-tetrahydro-1,2,5-benzothiadiazepin-8-yl)oxy)-2-fluoroacrylic acid], for which the pIC50 is 6.88 at human LBAT and 5.95 at human IBAT.
Turning to `CCCCC1CN(c2ccc(F)cc2)c2cc(SCC)c(O/C=C/C(=O)O)cc2S(=O)(=O)C1` (single isomer, unassigned) [Example 8, (E)-3-((3-butyl-7-(ethylthio)-5-(4-fluorophenyl)-1,1-dioxido-2,3,4,5-tetrahydro-1,5-benzothiazepin-8-yl)oxy)acrylic acid], the pIC50 on human LBAT is less than 6.48; at human IBAT, less than 5.00.
For `CCCCC1CN(c2ccccc2)c2cc(SCC)c(O/C=C(\F)C(=O)O)cc2S(=O)(=O)C1` (single isomer, unassigned) [Example 14, (Z)-3-((3-butyl-7-(ethylthio)-1,1-dioxido-5-phenyl-2,3,4,5-tetrahydro-1,5-benzothiazepin-8-yl)oxy)-2-fluoroacrylic acid], the pIC50 at human LBAT was 7.68; on human IBAT, less than 5.00.
On the same counts, the results for `CCCCC1CN(c2ccc(F)cc2)c2cc(SCC)c(O/C=C(\F)C(=O)O)cc2S(=O)(=O)C1` (single isomer, unassigned) [Example 17, (Z)-3-((3-butyl-7-(ethylthio)-5-(4-fluorophenyl)-1,1-dioxido-2,3,4,5-tetrahydro-1,5-benzothiazepin-8-yl)oxy)-2-fluoroacrylic acid] are 8.26 and less than 5.48.
On the same counts, the results for `CCCCC1CN(c2ccc(F)cc2)c2cc(SC)c(O/C=C(\F)C(=O)O)cc2S(=O)(=O)N1` (racemic) [Example 27, (Z)-3-((3-butyl-5-(4-fluorophenyl)-7-(methylthio)-1,1-dioxido-2,3,4,5-tetrahydro-1,2,5-benzothiadiazepin-8-yl)oxy)-2-fluoroacrylic acid] are 7.89 and 6.32.
The matching figures for `CCCCC1CN(c2ccc(F)cc2)c2cc(SCC)c(O/C=C(\F)C(=O)O)cc2S(=O)(=O)N1C` (single isomer, unassigned) [Example 23, (Z)-3-((3-butyl-7-(ethylthio)-5-(4-fluorophenyl)-2-methyl-1,1-dioxido-2,3,4,5-tetrahydro-1,2,5-benzothiadiazepin-8-yl)oxy)-2-fluoroacrylic acid]: 7.15 and less than 5.48.
For `CCCCC1CN(c2ccc(F)cc2)c2cc(SC)c(O/C=C(\F)C(=O)O)cc2S(=O)(=O)C1` (single isomer, unassigned) [Example 11, (Z)-3-((3-butyl-5-(4-fluorophenyl)-7-(methylthio)-1,1-dioxido-2,3,4,5-tetrahydro-1,5-benzothiazepin-8-yl)oxy)-2-fluoroacrylic acid], the pIC50 on human LBAT is 9.05; at human IBAT it was 6.28.
The matching figures for `CCCCC1CN(c2ccc(F)cc2)c2cc(SC)c(O/C=C(\F)C(=O)O)cc2S(=O)(=O)C1` (single isomer, unassigned) [Example 12, (Z)-3-((3-butyl-5-(4-fluorophenyl)-7-(methylthio)-1,1-dioxido-2,3,4,5-tetrahydro-1,5-benzothiazepin-8-yl)oxy)-2-fluoroacrylic acid]: 7.82 and 5.85.
On the same counts, the results for `CCCCC1CN(c2ccccc2)c2cc(SCC)c(O/C=C/C(=O)O)cc2S(=O)(=O)N1` (racemic) [Example 4, (E)-3-((3-Butyl-7-(ethylthio)-1,1-dioxido-5-phenyl-2,3,4,5-tetrahydro-1,2,5-benzothiadiazepin-8-yl)oxy)acrylic acid] are 8.47 and less than 5.00.
For `CCCCC1CN(c2ccc(F)cc2)c2cc(SC)c(O/C=C/C(=O)O)cc2S(=O)(=O)N1` (single isomer, unassigned) [Example 2, (E)-3-((3-butyl-5-(4-fluorophenyl)-7-(methylthio)-1,1-dioxido-2,3,4,5-tetrahydro-1,2,5-benzothiadiazepin-8-yl)oxy)acrylic acid], the pIC50 is 6.56 on human LBAT and less than 5.00 on human IBAT.
The matching figures for `CCCCC1CN(c2ccc(F)cc2)c2cc(SC)c(O/C=C(\F)C(=O)O)cc2S(=O)(=O)N1C` (single isomer, unassigned) [Example 21, (Z)-3-((3-butyl-5-(4-fluorophenyl)-2-methyl-7-(methylthio)-1,1-dioxido-2,3,4,5-tetrahydro-1,2,5-benzothiadiazepin-8-yl)oxy)-2-fluoroacrylic acid]: 8.00 and less than 5.48.
The matching figures for `CCCCC1CN(c2ccccc2)c2cc(SCC)c(O/C=C(\F)C(=O)O)cc2S(=O)(=O)N1C` (racemic) [Example 24, (Z)-3-((3-butyl-7-(ethylthio)-2-methyl-1,1-dioxido-5-phenyl-2,3,4,5-tetrahydro-1,2,5-benzothiadiazepin-8-yl)oxy)-2-fluoroacrylic acid]: 8.89 and 5.75.
The matching figures for `CCCCC1CN(c2ccccc2)c2cc(SCC)c(O/C=C/C(=O)O)cc2S(=O)(=O)N1` (single isomer, unassigned) [Example 5, (E)-3-((3-butyl-7-(ethylthio)-1,1-dioxido-5-phenyl-2,3,4,5-tetrahydro-1,2,5-benzothiadiazepin-8-yl)oxy)acrylic acid]: 8.47 and 5.06.
